Literature values as cited in patent US12624058B2, “Promoiety strategy to enhance drug activity” (UNIVERSITY OF SOUTHERN CALIFORNIA, priority 2020, dated 2026).

Experiments:
multiple Ad types = details: cell culture; read-out: EC50, replication of multiple Ad types
Ad5 = details: immunosuppressed Syrian hamster model
[1] = in vivo
[2] = in vivo; remark: listed apart in the source

SMILES	EC50 (multiple Ad types) [nM]	efficacy against Ad5 replication and pathogenesis (Ad5)	nephrotoxicity [1]	GI side effect (Ad viremia; phase II clinical trial)	reduction of Ad viremia (Ad viremia; preemptive treatment, pediatric and adult patients)	oral bioavailability [2] [%]
CCCCCCCCCCCCCCCCOCCCOP(=O)(O)CO[C@H](CO)Cn1ccc(N)nc1=O [BCV]	~20	effective	little or no nephrotoxicity	symptomatic GI irritation was observed	reduced Ad viremia in some of these patients however, the result was not statistically significant	
Nc1ccn(C[C@@H](CO)OCP(=O)(O)O)c(=O)n1 [CDV, (S)-1-(3-hydroxy-2-phosphonomethoxypropyl)cytosine]		effective	causes nephrotoxicity			< 5
